Data: patent publication US4073917A, “Local anesthetics tertiary aminoalkoxyphenyl ethers” (priority 1974, dated 1978)

Experiments:
[1] = system: sciatic nerve; assay: infiltration anesthesia, sciatic nerve block in the intact guinea-pig (Shackell); format: in vivo
Description: B. The compounds according to the invention were also tested as to onset and duration of local anesthetic effect at parenteral administration (infiltration anesthesia). […] Four animals were used at each test. The results are depicted in the following table:
The reference compound being used at this test is 2-(N-ethyl-n-propylamino)-2',6'-n-butyroxylidide (etidocaine).

[2] = system: mice; settings: s.c.; taken from Adams et al; cited from earlier work
[3] = acute toxicity in mice (LD 50); settings: mouse, in vivo
Description: C. The acute toxicity for the base forms of a number of the new compounds were tested in mice.

[4] = system: back of the guinea-pig (intact skin); assay: surface anesthesia by epicutaneous application to intact skin, pricking test as in the intracutaneous wheal test; format: in vivo, guinea-pig (Dunkin-Hartley, males); settings: for Local anesthetic efficiency (percentage block during the 25 min testing period): ± s.e.m.
Description: A. Guinea-pigs (Dunkin-Hartley, males, 4-6 weeks of age 350±50 g) were shaved and depilated. A gauze folded twice (23 mm diameter) was put into the test solution and thereafter in a plastic cup (outer diameter 26 mm, inner diameter 24 mm, inner height 4 mm). The cup with the gauze saturated with test solution was attached to the back of the animal as an occlusive dressing fastened with plaster (25 mm width) wound around the body). […] After the end of the contact time the site of contact was washed and marked with a fatty chalk. With a sharp instrument (e.g. cannula or a pair of tweezers) the place was pricked six times and registering was made as in the intracutaneous wheal test (Bulbring-Wajda: J. Pharmacol., 1945, 85, p 78) on the back of the guinea-pig, i.e. by registering the presence or absence of a characteristic ripple of the skin of the back of the animal. Every pricking which gives no skin contraction was counted. The test was repeated at regular intervals of 5 min, during an interval of 30 min from the end of the application period. The test gives an indication of onset time, depth and duration of block. The percentage block during the 25 min testing period was used as an index for efficiency. The test solution consisted of the test compound (base) dissolved to 10% (w/v, g/ml) in a mixture of isopropanol (65%: v/v), glycerol (25%: v/v) and water (10%: v/v).
The compound according to Example 1 (RAP 411) was tested also with varying concentrations and in the form of a hydrochloride salt in aqueous solution.

[5] = 5% base in the alcoholic mixture
[6] = 10% (w/v) base in isopropanol 65%/glycerol 25%/water 10%, time of contact 30 min
[7] = 10% hydrochloride in aqueous solution

CCCN(CC)C(CC)C(=O)Nc1c(C)cccc1C (centres unmarked) [Etidocaine, 2-(N-ethyl-n-propylamino)-2',6'-n-butyroxylidide]
Flexion reflex block, duration ([1]; conc. 0.5%, pH 6.0): 84 ± 17 min | Flexion reflex block, onset ([1]; conc. 0.5%, pH 6.0): 1 to 2 min | Motor paralysis, duration ([1]; conc. 0.5%, pH 6.0): 131 ± 13 min | Motor paralysis, onset ([1]; conc. 0.5%, pH 6.0): 1 min | LD 50 (base) [2]: 99 mg/kg

CCCCOc1ccccc1OCCN(C(C)C)C(C)C [Example 1, 1-n-Butoxy-2-(2'-diisopropylaminoethoxy)-benzene]
LD50 ([3]; iv): 15 mg/kg | LD50 ([3]; sc): 250 mg/kg | Flexion reflex block, onset ([1]; conc. 0.5%, pH 6.0): 1 min | Motor paralysis, onset ([1]; conc. 0.5%, pH 6.0): 1 min | anesthesia [4, 5]: complete anesthesia | duration of complete anesthesia [4, 5]: at least 30 min | Local anesthetic efficiency (percentage block during the 25 min testing period) [4, 6]: 99.3 ± 0.7%

CCCOc1ccccc1OCCN(C(C)C)C(C)C [Example 2, 1-n-Propoxy-2-(2'-diisopropylaminoethoxy)-benzene]
Local anesthetic efficiency (percentage block during the 25 min testing period) [4, 6]: 98.6 ± 0.8%

CC(C)COc1ccccc1OCCN(C(C)C)C(C)C [Example 3, 1-Isobutoxy-2-(2'-diisopropylaminoethoxy)-benzene]
LD50 ([3]; iv): 14 mg/kg | LD50 ([3]; sc): 300 mg/kg | Local anesthetic efficiency (percentage block during the 25 min testing period) [4, 6]: 97.2 ± 2.8%

CCN(CC)CCOc1ccccc1OCC(C)C [Example 4, 1-Isobutoxy-2-(2'-diethylaminoethoxy)-benzene]
LD50 ([3]; iv): 18 mg/kg | Local anesthetic efficiency (percentage block during the 25 min testing period) [4, 6]: 97.2 ± 2.8%

CCN(CC)CCCOc1ccccc1OCC(C)C [Example 5, 1-Isobutoxy-2-(3'-diethylaminopropoxy)-benzene]
LD50 ([3]; iv): 14 mg/kg | Local anesthetic efficiency (percentage block during the 25 min testing period) [4, 6]: 75.7 ± 9.4%

CCCCOc1ccccc1OCCN1CCCCC1 [Example 6, 1-n-Butoxy-2-(2'-piperidinoethoxy)-benzene]
LD50 ([3]; iv): 9 mg/kg | Local anesthetic efficiency (percentage block during the 25 min testing period) ([4]; 10% (w/v) base in alcoholic mixture, time of contact 15 min): 79.2 ± 12.6%

CCN(CC)CC(=O)Nc1c(C)cccc1C [Lidocaine, diethylaminoacet-2,6-xylidide]
Flexion reflex block, duration ([1]; conc. 2.0%, pH 6.9): 57 ± 7 min | Flexion reflex block, onset ([1]; conc. 2.0%, pH 6.9): 1 to 2 min | Motor paralysis, duration ([1]; conc. 2.0%, pH 6.9): 78 ± 5 min | Motor paralysis, onset ([1]; conc. 2.0%, pH 6.9): 1 min

CCCCOc1ccccc1OCCN(C(C)C)C(C)C.Cl [RAP 411 hydrochloride, 1-n-butoxy-2-(2'-diisopropylaminoethoxy)-benzene hydrochloride]
anesthesia [4, 7]: complete anesthesia | duration of complete anesthesia [4, 7]: at least 30 min

CCN(CC)CCOc1ccccc1OC [RAP 419, o-methoxy-(diethylaminoethoxy)-benzene, reference compound]
Local anesthetic efficiency (percentage block during the 25 min testing period) [4, 6]: 0%
